Measured values taken from patent publication US11547681B2, “N-acylethanolamide derivatives and uses thereof” (ELIEM THERAPEUTICS, INC., priority 2016, dated 2023).
Like-named read-outs stand apart in the source and are kept apart here. Values belong to the compound of their own block, whether it stands above or below them.

What was measured:
[1] = Summary of half life data (Table A), matrix not stated; format: in vitro ADME
[2] = Simulated intestinal fluid (SIF) stability in the presence of various enzymes; format: in vitro ADME; conditions: for % Remaining of Initial: 1 μM, n = 1
Protocol: (§1) Studies were carried out in simulated intestinal fluid in the presence of various enzymes. Simulated intestinal fluid was prepared by dissolving 6.8 g of monobasic potassium phosphate in 1.0 L of water. Aliquots of this solution were taken and the pH was adjusted to 6.8. Individual enzymes were then spiked into aliquots for each experiment. A DMSO stock was first prepared for the test article. Aliquots of the DMSO solution were dosed into 700 μL of matrix, which had been pre-warmed to 37° C., at a final test article concentration of 1 μM. […] Samples were stored at 4° C. until the end of the experiment. After the final time point was sampled, the plate was mixed and then centrifuged at 3,000 rpm for 10 minutes. Calibration standards were prepared in matched matrix. […] Analytical conditions are outlined in Appendix 8-1.
as §1, with “10-1.” for “8-1.”
Studies were carried out in simulated intestinal fluid in the presence of various enzymes. Simulated intestinal fluid was prepared by dissolving 6.8 g of monobasic potassium phosphate in 1.0 L of water. Aliquots of this solution were taken and the pH was adjusted to 6.8. Individual enzymes were then spiked into aliquots for each experiment. A DMSO stock was first prepared for test article. Aliquots of the DMSO solution were dosed into 700 μL of matrix, which had been pre-warmed to 37° C., at a final test article concentration of 1 μM. […] Samples were stored at 4° C. until the end of experiment. After final time point was sampled, the plate was mixed and then centrifuged at 3,000 rpm for 10 minutes. Calibration standards were prepared in matched matrix. […] Analytical conditions are outlined in Appendix 13-1.
as §1, with “17-1.” for “8-1.”

[3] = male, Sprague-Dawley, rat, in vivo, po
[4] = Simulated intestinal fluid stability, SIF containing pancreatin; format: in vitro ADME; conditions: for % Remaining of Initial (n = 1): 1 μM (Example 14); for Measured Concentration of Drug: test article dosed at 1 μM (Example 14)
Protocol: (§2) Studies were carried out in simulated intestinal fluid containing pancreatin. Simulated intestinal fluid was prepared by dissolving 6.8 g of monobasic potassium phosphate in 1.0 L of water. Pancreatin was then added to the solution and the pH was adjusted to 6.8. A DMSO stock was first prepared for the test articles. Aliquots of the DMSO solution were dosed into 300 μL of matrix, which had been pre-warmed to 37° C., at a final test article concentration of 1 μM. An individual tube was dosed for each time point. At each time point (0, 15, 30, 60, and 120 minutes), 900 μL of ice-cold acetonitrile containing 1.0% formic acid was added to an individual tube. Starting time for each tube was staggered such that all timepoints would finish at the same time. After the conclusion of the experiment, tubes were mixed and then centrifuged at 3,000 rpm for 10 minutes. Calibration standards were prepared in matched matrix. […] Analytical conditions are outlined in Appendix 11-1.
as §2, with “prepared for test articles.” for “prepared for the test articles.”, “Aliquots of DMSO solution” for “Aliquots of the DMSO solution”, “individual tube. The starting time for” for “individual tube. Starting time for”, “that all time points would finish” for “that all timepoints would finish”, “in Appendix 14-1.” for “in Appendix 11-1.”

[5] = SIF + Carboxypeptidase A, 0 min
[6] = SIF + Carboxypeptidase A, 15 min
[7] = SIF + Carboxypeptidase A, 30 min
[8] = SIF + Carboxypeptidase A, 60 min
[9] = SIF + Carboxypeptidase A, 120 min
[10] = SIF + Carboxypeptidase B, 0 min
[11] = SIF + Carboxypeptidase B, 15 min
[12] = SIF + Carboxypeptidase B, 30 min
[13] = SIF + Carboxypeptidase B, 60 min
[14] = SIF + Carboxypeptidase B, 120 min
[15] = simulated intestinal fluid with carboxypeptidase A, pH 6.8, SIF + Carboxypeptidase A, read-out: Half-life
[16] = simulated intestinal fluid with carboxypeptidase B, pH 6.8, SIF + Carboxypeptidase B, read-out: Half-life
[17] = simulated intestinal fluid with chymotrypsin, pH 6.8, SIF + Chymotrypsin, read-out: Half-life
[18] = simulated intestinal fluid with elastase, pH 6.8, SIF + Elastase, read-out: Half-life
[19] = simulated intestinal fluid with trypsin, pH 6.8, SIF + Trypsin, read-out: Half-life

half-life [1]: < 1 min
% Remaining of Initial [2, 5]: 100%
% Remaining of Initial [2, 6]: 88%
% Remaining of Initial [2, 7]: 74%
% Remaining of Initial [2, 8]: 60%
% Remaining of Initial [2, 9]: 32%
% Remaining of Initial [2, 10]: 100%
% Remaining of Initial [2, 11]: 94%
% Remaining of Initial [2, 12]: 87%
% Remaining of Initial [2, 13]: 68%
% Remaining of Initial [2, 14]: 37%
% Remaining of Initial ([2]; SIF + Chymotrypsin, 0 min): 100%
% Remaining of Initial ([2]; SIF + Chymotrypsin, 15 min): 103%
% Remaining of Initial ([2]; SIF + Chymotrypsin, 30 min): 90%
% Remaining of Initial ([2]; SIF + Chymotrypsin, 60 min): 68%
% Remaining of Initial ([2]; SIF + Chymotrypsin, 120 min): 35%
% Remaining of Initial ([2]; SIF + Elastase, 0 min): 100%
% Remaining of Initial ([2]; SIF + Elastase, 15 min): 72%
% Remaining of Initial ([2]; SIF + Elastase, 30 min): 50%
% Remaining of Initial ([2]; SIF + Elastase, 60 min): 27%
% Remaining of Initial ([2]; SIF + Elastase, 120 min): 7.1%
% Remaining of Initial ([2]; SIF + Trypsin, 0 min): 100%
% Remaining of Initial ([2]; SIF + Trypsin, 15 min): 89%
% Remaining of Initial ([2]; SIF + Trypsin, 30 min): 82%
% Remaining of Initial ([2]; SIF + Trypsin, 60 min): 62%
% Remaining of Initial ([2]; SIF + Trypsin, 120 min): 37%
half-life at 1 μM [2, 15]: 75 min
half-life at 1 µM [2, 16]: 89 min
half-life at 1 μM [2, 17]: 84 min
half-life at 1 μM [2, 18]: 31 min
half-life at 1 μM [2, 19]: 85 min
Bioavailability [3]: 12.1%
% Remaining of Initial (n = 1) ([4]; 0 min): 100%
Measured Concentration of Drug ([4]; 0 min): 0.088 µM
% Remaining of Initial (n = 1) ([4]; 15 min): <4.5%
Measured Concentration of Drug ([4]; 15 min): 0 µM
% Remaining of Initial (n = 1) ([4]; 30 min): <4.5%
Measured Concentration of Drug ([4]; 30 min): 0 µM
% Remaining of Initial (n = 1) ([4]; 60 min): <4.5%
Measured Concentration of Drug ([4]; 60 min): 0 µM
% Remaining of Initial (n = 1) ([4]; 120 min): <4.5%
Measured Concentration of Drug ([4]; 120 min): 0 µM
SMILES: CCCCCCCCCCCCCCCC(=O)NCCOC(=O)CCC(=O)OC(COC(=O)CCC)COC(=O)CCC [Compound I-16]

half-life [1]: 6.2 min
% Remaining of Initial [2, 5]: 100%
% Remaining of Initial [2, 6]: 33%
% Remaining of Initial [2, 7]: 8.7%
% Remaining of Initial [2, 8]: <1.0%
% Remaining of Initial [2, 9]: <1.0%
% Remaining of Initial [2, 10]: 100%
% Remaining of Initial [2, 11]: 30%
% Remaining of Initial [2, 12]: 7.1%
% Remaining of Initial [2, 13]: <1.0%
% Remaining of Initial [2, 14]: <1.0%
% Remaining of Initial ([2]; SIF + Chymotrypsin, 0 min): 100%
% Remaining of Initial ([2]; SIF + Chymotrypsin, 15 min): 36%
% Remaining of Initial ([2]; SIF + Chymotrypsin, 30 min): 8.7%
% Remaining of Initial ([2]; SIF + Chymotrypsin, 60 min): <1.0%
% Remaining of Initial ([2]; SIF + Chymotrypsin, 120 min): <1.0%
% Remaining of Initial ([2]; SIF + Elastase, 0 min): 100%
% Remaining of Initial ([2]; SIF + Elastase, 15 min): 38%
% Remaining of Initial ([2]; SIF + Elastase, 30 min): 17%
% Remaining of Initial ([2]; SIF + Elastase, 60 min): 16%
% Remaining of Initial ([2]; SIF + Elastase, 120 min): 17%
% Remaining of Initial ([2]; SIF + Trypsin, 0 min): 100%
% Remaining of Initial ([2]; SIF + Trypsin, 15 min): 52%
% Remaining of Initial ([2]; SIF + Trypsin, 30 min): 31%
% Remaining of Initial ([2]; SIF + Trypsin, 60 min): 28%
% Remaining of Initial ([2]; SIF + Trypsin, 120 min): 25%
half-life at 1 μM [2, 15]: < 15 min
half-life at 1 µM ([2]; simulated intestinal fluid with carboxypeptidase A, pH 6.8, SIF + Carboxypeptidase A, read-out: Half-life, calculated value in parentheses): 9.2 min
half-life at 1 µM [2, 16]: < 15 min
half-life at 1 µM ([2]; simulated intestinal fluid with carboxypeptidase B, pH 6.8, SIF + Carboxypeptidase B, read-out: Half-life, calculated value in parentheses): 8.5 min
half-life at 1 μM [2, 17]: < 15 min
half-life at 1 μM ([2]; simulated intestinal fluid with chymotrypsin, pH 6.8, SIF + Chymotrypsin, read-out: Half-life, calculated value in parentheses): 9.6 min
half-life at 1 μM [2, 18]: < 15 min
half-life at 1 µM ([2]; simulated intestinal fluid with elastase, pH 6.8, SIF + Elastase, read-out: Half-life, calculated value in parentheses): 12 min
half-life at 1 μM [2, 19]: 25 min
Bioavailability [3]: 17.3%
Dose-normalized AUC∞ of PEA [3]: 11.2 kg·ng·h/mL/mg
% Remaining of Initial (n = 1) ([4]; 0 min): 100%
Measured Concentration of Drug ([4]; 0 min): 0.94 µM
% Remaining of Initial (n = 1) ([4]; 15 min): 17%
Measured Concentration of Drug ([4]; 15 min): 0.16 µM
% Remaining of Initial (n = 1) ([4]; 30 min): 6.8%
Measured Concentration of Drug ([4]; 30 min): 0.064 µM
% Remaining of Initial (n = 1) ([4]; 60 min): <1.3%
Measured Concentration of Drug ([4]; 60 min): 0 µM
% Remaining of Initial (n = 1) ([4]; 120 min): <1.3%
Measured Concentration of Drug ([4]; 120 min): 0 µM
half-life at 1 μM ([4]; simulated intestinal fluid with pancreatin, pH 6.8, 1 μM (Example 14)): 6.2 min
SMILES: CCCCCCCCCCCCCCCC(=O)NCCOC(=O)CCC(=O)OC(CO)CO [Compound I-8]
